The assay has as its target c-fms (Homo sapiens, UniProt P07333). In words: c-fms autophosphorylation, fluorescence polarization competition immunoassay. In kind it is biochemical. Conditions: 10 nM c-fms, 1 mM ATP; for inhibition at 0.1 µM: test concentration 0.1 μM, read-out: c-fms Autophosphorylation Percent Inhibition, % @ 0.1 μM; for inhibition at 1 µM: test concentration 1 μM, read-out: c-fms Autophosphorylation Percent Inhibition, % @ 1 μM. Here is the method: The assay buffer used was 100 mM 4-(2-hydroxyethyl)piperazine 1-ethanesulfonic acid (HEPES), pH 7.5, 1 mM 1,4-dithio-DL-threitol (DTT), 0.01% (v/v) Tween-20. Compounds were diluted in assay buffer containing 4% dimethylsulfoxide (DMSO) just prior to the assay. To each well, 5 μL of compound were added followed by the addition of 3 μL of a mix containing 33 nM c-fms and 16.7 mM MgCl2 (Sigma) in assay buffer. The kinase reaction was initiated by adding 2 μL of 5 mM ATP (Sigma) in assay buffer. The final concentrations in the assay were 10 nM c-fms, 1 mM ATP, 5 mM MgCl2, 2% DMSO. Control reactions were ran in each plate: in positive and negative control wells, assay buffer (made 4% in DMSO) was substituted for the compound; in addition, positive control wells received 1.2 μL of 50 mM ethylenediaminetetraaceticacid (EDTA).
The plates were incubated at room temperature for 45 min. At the end of the incubation, the reaction was quenched with 1.2 μL of 50 mM EDTA (EDTA was not added to the positive control wells at this point; see above). Following a 5-min incubation, each well received 10 μL of a 1:1:3 mixture of anti-phosphotyrosine antibody, 10X, PTK green tracer, 10X (vortexed), FP dilution buffer, respectively (all from PanVera, cat. # P2837). The plate was covered, incubated for 30 min at room temperature and the fluorescence polarization was read on the Analyst. The instrument settings were: 485 nm excitation filter; 530 nm emission filter; Z height: middle of well; G factor: 0.93.
The percent inhibition is shown in Table 1 at the indicated test concentration. The IC50 shown in Table 2 are averages of three independent measurements.

Results on 25 molecules are retold here after patent US7728003B2, “5-oxo-5,8-dihydro-pyrido-pyrimidines as inhibitors of c-fms kinase” (Janssen Pharmaceutica N.V., priority 2005, dated 2010).

Each structure is given as a SMILES string.

Chain of c-fms (P07333 20-972): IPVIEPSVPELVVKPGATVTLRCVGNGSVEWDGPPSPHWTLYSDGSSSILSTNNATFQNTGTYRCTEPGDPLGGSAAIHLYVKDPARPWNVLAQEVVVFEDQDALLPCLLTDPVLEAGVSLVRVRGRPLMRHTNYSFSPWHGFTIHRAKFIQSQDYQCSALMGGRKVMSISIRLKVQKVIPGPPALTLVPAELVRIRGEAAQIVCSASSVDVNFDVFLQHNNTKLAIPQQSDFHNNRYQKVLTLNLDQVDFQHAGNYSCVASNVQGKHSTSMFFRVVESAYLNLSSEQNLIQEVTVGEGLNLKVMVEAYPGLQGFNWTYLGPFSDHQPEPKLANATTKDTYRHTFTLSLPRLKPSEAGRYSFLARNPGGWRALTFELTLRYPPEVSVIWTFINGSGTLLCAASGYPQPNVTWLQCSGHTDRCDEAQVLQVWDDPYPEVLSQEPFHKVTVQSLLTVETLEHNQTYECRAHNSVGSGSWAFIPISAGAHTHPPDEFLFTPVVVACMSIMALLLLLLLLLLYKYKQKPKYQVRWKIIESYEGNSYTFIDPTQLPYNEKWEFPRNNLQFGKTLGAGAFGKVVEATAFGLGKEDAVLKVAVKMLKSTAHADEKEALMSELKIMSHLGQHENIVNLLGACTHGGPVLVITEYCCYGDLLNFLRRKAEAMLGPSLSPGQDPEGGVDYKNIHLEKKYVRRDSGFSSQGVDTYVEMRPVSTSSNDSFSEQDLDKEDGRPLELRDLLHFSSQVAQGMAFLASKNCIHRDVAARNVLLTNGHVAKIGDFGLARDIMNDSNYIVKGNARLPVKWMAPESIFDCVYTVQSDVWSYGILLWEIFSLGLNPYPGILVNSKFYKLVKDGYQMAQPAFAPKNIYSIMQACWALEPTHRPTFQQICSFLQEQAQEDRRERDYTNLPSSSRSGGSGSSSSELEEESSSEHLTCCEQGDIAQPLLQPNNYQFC

On to `NC(=O)c1cn(-c2ccc3c(c2)CCC3)c2nc(NCCCN3CCCC3=O)ncc2c1=O` [Cpd 8, 8-Indan-5-yl-5-oxo-2-[3-(2-oxo-pyrrolidin-1-yl)-propylamino]-5,8-dihydro-pyrido[2,3-d]pyrimidine-6-carboxylic acid amide], for which the inhibition at 0.1 µM stood at 15% and the inhibition at 1 µM amounted to 46%.

Take `CONC(=O)c1cn(C2CCCCC2)c2nc(NCCCN3CCN(C)CC3)ncc2c1=O` [Cpd 45, 8-Cyclohexyl-2-[3-(4-methyl-piperazin-1-yl)-propylamino]-5-oxo-5,8-dihydro-pyrido[2,3-d]pyrimidine-6-carboxylic acid methoxy-amide]: the inhibition at 0.1 µM stood at 43% and the inhibition at 1 µM was 67%.

For `COCCNc1ncc2c(=O)c(C(=O)NOC)cn(C3CCCCC3)c2n1` [Cpd 47, 8-Cyclohexyl-2-(2-methoxy-ethylamino)-5-oxo-5,8-dihydro-pyrido[2,3-d]pyrimidine-6-carboxylic acid methoxy-amide], the inhibition at 0.1 µM worked out at 31% and the inhibition at 1 µM turned out to be 57%.

In the case of `CONC(=O)c1cn(C2CCCCC2)c2nc(NCCN3CCCCC3)ncc2c1=O` [Cpd 50, 8-Cyclohexyl-5-oxo-2-(2-piperidin-1-yl-ethylamino)-5,8-dihydro-pyrido[2,3-d]pyrimidine-6-carboxylic acid methoxy-amide], the inhibition at 0.1 µM worked out at 3% and the inhibition at 1 µM amounted to 20%.

For the molecule `CONC(=O)c1cn(C2CCCCC2)c2nc(NCCc3ccc(OC)cc3)ncc2c1=O` [Cpd 49, 8-Cyclohexyl-2-[2-(4-methoxy-phenyl)-ethylamino]-5-oxo-5,8-dihydro-pyrido[2,3-d]pyrimidine-6-carboxylic acid methoxy-amide], the inhibition at 0.1 µM was 38% and the inhibition at 1 µM stood at 68%.

Take `CNC(=O)c1cn(C2CCCCC2)c2nc(NCCCN3CCOCC3)ncc2c1=O` [Cpd 55, 8-Cyclohexyl-2-(3-morpholin-4-yl-propylamino)-5-oxo-5,8-dihydro-pyrido[2,3-d]pyrimidine-6-carboxylic acid methylamide]: the inhibition at 0.1 µM was 13% and the inhibition at 1 µM was determined as 23%.

For the molecule `CONC(=O)c1cn(C2CCCCC2)c2nc(NCCN3CCCC3)ncc2c1=O` [Cpd 48, 8-Cyclohexyl-5-oxo-2-(2-pyrrolidin-1-yl-ethylamino)-5,8-dihydro-pyrido[2,3-d]pyrimidine-6-carboxylic acid methoxy-amide], the inhibition at 0.1 µM was 0% and the inhibition at 1 µM turned out to be 18%.

Turning to `NC(=O)c1cn(-c2ccc3c(c2)CCC3)c2nc(NCCCN3CCCC3)ncc2c1=O` [Cpd 9, 8-Indan-5-yl-5-oxo-2-(3-pyrrolidin-1-yl-propylamino)-5,8-dihydro-pyrido[2,3-d]pyrimidine-6-carboxylic acid amide], the inhibition at 0.1 µM was found to be 16% and the inhibition at 1 µM turned out to be 45%.

Consider `CONC(=O)c1cn(C2CCCCC2)c2nc(NCCCN3CCCC3)ncc2c1=O` [Cpd 46, 8-Cyclohexyl-5-oxo-2-(3-pyrrolidin-1-yl-propylamino)-5,8-dihydro-pyrido[2,3-d]pyrimidine-6-carboxylic acid methoxy-amide], for which the inhibition at 0.1 µM came to 28% and the inhibition at 1 µM is 51%.

With `CNC(=O)c1cn(C2CCCCC2)c2nc(NCCN3CCOCC3)ncc2c1=O` [Cpd 60, 8-Cyclohexyl-2-(2-morpholin-4-yl-ethylamino)-5-oxo-5,8-dihydro-pyrido[2,3-d]pyrimidine-6-carboxylic acid methylamide], the inhibition at 0.1 µM was 12% and the inhibition at 1 µM was 18%.

With `CONC(=O)c1cn(-c2ccc3c(c2)CCC3)c2nc(NCc3cc(OC)cc(OC)c3)ncc2c1=O` [Cpd 27, 2-(3,5-Dimethoxy-benzylamino)-8-indan-5-yl-5-oxo-5,8-dihydro-pyrido[2,3-d]pyrimidine-6-carboxylic acid methoxy-amide], the inhibition at 0.1 µM worked out at 15% and the inhibition at 1 µM was 41%.

As for `CONC(=O)c1cn(-c2ccc3c(c2)CCC3)c2nc(NCCCN(C)C)ncc2c1=O` [Cpd 20, 2-(3-Dimethylamino-propylamino)-8-indan-5-yl-5-oxo-5,8-dihydro-pyrido[2,3-d]pyrimidine-6-carboxylic acid methoxy-amide], the inhibition at 0.1 µM was 20% and the inhibition at 1 µM was 52%.

Regarding `COCCCNc1ncc2c(=O)c(C(=O)NOC)cn(C3CCCCC3)c2n1` [Cpd 44, 8-Cyclohexyl-2-(3-methoxy-propylamino)-5-oxo-5,8-dihydro-pyrido[2,3-d]pyrimidine-6-carboxylic acid methoxy-amide], the inhibition at 0.1 µM came out at 26% and the inhibition at 1 µM turned out to be 62%.

On to `COCCCNc1ncc2c(=O)c(C(=O)NOC)cn(-c3ccc4c(c3)CCC4)c2n1` [Cpd 21, 8-Indan-5-yl-2-(3-methoxy-propylamino)-5-oxo-5,8-dihydro-pyrido[2,3-d]pyrimidine-6-carboxylic acid methoxy-amide], for which the inhibition at 0.1 µM amounted to 50% and the inhibition at 1 µM is 82%.

With `CNC(=O)c1cn(C2CCCCC2)c2nc(NCCCOC)ncc2c1=O` [Cpd 56, 8-Cyclohexyl-2-(3-methoxy-propylamino)-5-oxo-5,8-dihydro-pyrido[2,3-d]pyrimidine-6-carboxylic acid methylamide], the inhibition at 0.1 µM was 6% and the inhibition at 1 µM was 23%.

Turning to `NC(=O)c1cn(C2CCCCC2)c2nc(NCCN3CCOCC3)ncc2c1=O` [Cpd 39, 8-Cyclohexyl-2-(2-morpholin-4-yl-ethylamino)-5-oxo-5,8-dihydro-pyrido[2,3-d]pyrimidine-6-carboxylic acid amide], the inhibition at 0.1 µM was found to be 21% and the inhibition at 1 µM was found to be 59%.

As to `CNC(=O)c1cn(C2CCCCC2)c2nc(NCCCn3ccnc3)ncc2c1=O` [Cpd 53, 8-Cyclohexyl-2-(3-imidazol-1-yl-propylamino)-5-oxo-5,8-dihydro-pyrido[2,3-d]pyrimidine-6-carboxylic acid methylamide], the inhibition at 0.1 µM came to 10% and the inhibition at 1 µM stood at 21%.

The molecule `NC(=O)c1cn(-c2ccc3c(c2)CCC3)c2nc(NCCN3CCOCC3)ncc2c1=O` [Cpd 4, 8-Indan-5-yl-2-(2-morpholin-4-yl-ethylamino)-5-oxo-5,8-dihydro-pyrido[2,3-d]pyrimidine-6-carboxylic acid amide] registered an IC50 (average of three independent measurements) of 3.3 µM.

In the case of `NC(=O)c1cn(C2CCCCC2)c2nc(NCCCN3CCCC3)ncc2c1=O` [Cpd 34, 8-Cyclohexyl-5-oxo-2-(3-pyrrolidin-1-yl-propylamino)-5,8-dihydro-pyrido[2,3-d]pyrimidine-6-carboxylic acid amide], the inhibition at 0.1 µM was found to be 31% and the inhibition at 1 µM is 64%.

Consider `COCCCNc1ncc2c(=O)c(C(N)=O)cn(-c3ccc4c(c3)CCC4)c2n1` [Cpd 7, 8-Indan-5-yl-2-(3-methoxy-propylamino)-5-oxo-5,8-dihydro-pyrido[2,3-d]pyrimidine-6-carboxylic acid amide], for which the inhibition at 0.1 µM stood at 17% and the inhibition at 1 µM is 43%.

As for `CNC(=O)c1cn(C2CCCCC2)c2nc(NCCCN(C)C)ncc2c1=O` [Cpd 54, 8-Cyclohexyl-2-(3-dimethylamino-propylamino)-5-oxo-5,8-dihydro-pyrido[2,3-d]pyrimidine-6-carboxylic acid methylamide], the inhibition at 0.1 µM came out at 6% and the inhibition at 1 µM stood at 26%.

Consider `COCCNc1ncc2c(=O)c(C(N)=O)cn(-c3ccc4c(c3)CCC4)c2n1` [Cpd 10, 8-Indan-5-yl-2-(2-methoxy-ethylamino)-5-oxo-5,8-dihydro-pyrido[2,3-d]pyrimidine-6-carboxylic acid amide], for which the inhibition at 0.1 µM came to 16% and the inhibition at 1 µM is 41%.

`NC(=O)c1cn(C2CCCCC2)c2nc(NCCCN3CCCC3=O)ncc2c1=O` [Cpd 32, 8-Cyclohexyl-5-oxo-2-[3-(2-oxo-pyrrolidin-1-yl)-propylamino]-5,8-dihydro-pyrido[2,3-d]pyrimidine-6-carboxylic acid amide]: the inhibition at 0.1 µM was found to be 17% and the inhibition at 1 µM is 52%.

In the case of `CNC(=O)c1cn(-c2ccc3c(c2)CCC3)c2nc(NCCCN3CCOCC3)ncc2c1=O` [Cpd 13, 8-Indan-5-yl-2-(3-morpholin-4-yl-propylamino)-5-oxo-5,8-dihydro-pyrido[2,3-d]pyrimidine-6-carboxylic acid methylamide], the inhibition at 0.1 µM came out at 7% and the inhibition at 1 µM was found to be 27%.

Turning to `COCCNc1ncc2c(=O)c(C(=O)NOC)cn(-c3ccc4c(c3)CCC4)c2n1` [Cpd 23, 8-Indan-5-yl-2-(2-methoxy-ethylamino)-5-oxo-5,8-dihydro-pyrido[2,3-d]pyrimidine-6-carboxylic acid methoxy-amide], the inhibition at 0.1 µM is 51% and the inhibition at 1 µM came out at 65%.

The term inhibition denotes the drop in the measured response relative to a control, in per cent. For orientation: IC50 means the concentration at which inhibition is half-maximal. A high value points to weaker potency in that assay.
